Row | SMILES | melting point [°C]
1 | CC(=O)Oc1ccc(Cl)cc1C(=O)Cl | 35 to 38
2 | Cc1oc(-c2ccccc2)nc1CCOc1ccc(NC(=O)C(=O)O)cc1 | 196 to 198
3 | CC(C)(C)OC(=O)N1CCN(c2cccc(Cl)c2/C=N/NS(=O)(=O)c2ccccc2)CC1 | 162 to 165
4 | O=C1NC(Cc2ccccc2)=C2OCOCOC2C(Cc2ccccc2)N1 (stereo not drawn) | 125 to 130
5 | O=[N+]([O-])c1cc2c(Nc3ccc(F)c(Cl)c3)ncnc2cc1OCC1CC1 | 204
6 | Cc1cc(C)c(NC(=O)N(Cc2ccc3c(c2)Cc2ccccc2-3)C2CCCCC2)c(C)c1 | 147 to 149
7 | COC(=O)NC1CN(C(=O)Nc2ccc(OC(F)(F)F)cc2)NC1c1ccc(Cl)cc1 (stereo not drawn) | 107 to 114
8 | CC(CCn1c(=O)[nH]c2cc(F)ccc21)N1CCN(c2ccc(F)cc2)CC1 (stereo not drawn) | 188 to 193
9 | O=C(NCc1ccccc1)OCc1noc(-c2ccc(CN3CCCCCC3)s2)n1 | 129 to 130
10 | COc1ccc2ccc(-n3nc(OCCN4CCOCC4)cc3C)cc2c1 | 143 to 147
11 | CN(C)CCCN=C1CC(c2ccc(Cl)c(Cl)c2)Cc2c1c(=O)c1cc(Cl)ccc1n2O (stereo not drawn) | 208 to 210
12 | O=C(CCC(O)c1ccccc1)NCc1ccccc1 (stereo not drawn) | 92 to 94
13 | O=C(NCCOc1ccc(CC(Oc2ccc(F)c(F)c2)C(=O)O)cc1)c1ccc(-c2ccccn2)cc1 (stereo not drawn) | 135 to 136
14 | CCOC(=O)C1C2C(=O)N(Cc3ccccc3)C(=O)C12 (stereo not drawn) | 190
15 | Cc1cc2oc(=O)c3c(c2cc1N)CCN(CCN1CC2CCC(CC2)C1)C3 | 142 to 143
16 | CN1c2ccncc2NCc2cccn21 | 135 to 140
17 | COc1ccc2c(c1)c(CCNC(C)=O)cn2S(=O)(=O)c1ccc(C)cc1 | 132 to 133
18 | O=C1c2ccccc2CCn2cnnc21 | 187
19 | O=C(NCCO)c1cccc(-c2cccn3c(=O)n(Cc4cccc(C(F)(F)F)c4)nc23)c1 | 148 to 150
20 | CC(Cc1cc([N+](=O)[O-])cc2ccoc12)NC(=O)OC(C)(C)C (stereo not drawn) | 131 to 132
21 | COC1CN(c2ccc(NC(=O)OCc3ccccc3)cc2F)C1 | 95 to 96.5
22 | O=C1CCC(CCc2ccc(-c3ccccc3)cc2)N1O (stereo not drawn) | 192 to 194
23 | O=C(NCCc1c2n(c3ccc(O)nc13)CCCC2)c1ccco1 | 270
24 | COc1cc(Nc2c(C#N)cnc3cc4cc(OC)c(OCCN5CCN(C)CC5)cc4cc23)c(Cl)cc1F | 170 to 173

Row | SMILES | melting point [°C]
25 | CC1=NCC2CC(=O)N(c3ccccc3)c3cc(Cl)ccc3N12 (stereo not drawn) | 248 to 251
26 | CC(C)(C)OC(=O)NCC#Cc1cccnc1 | 74 to 78
27 | CC(C)Cn1cc(C(=O)Nc2nccs2)c2ccc(Cl)cc21 | 200 to 202
28 | CC(C)(C)c1cc(CCc2ccccc2NC(=O)N(Cc2ccccc2)C2CCCCCC2)cc(C(C)(C)C)c1O | 183 to 184
29 | COc1cc(OCC(CO)CO)c(-c2cccs2)cc1C=CC(=O)c1ccc(S(N)(=O)=O)cc1 | 191 to 192
30 | c1ccc(-c2cc(NC3=NCCN3)n(-c3ccccc3)n2)cc1 | 228 to 230
31 | COC(=O)Cc1cccc(C(=O)c2ccc(O)cc2)c1 | 111 to 113
32 | Cc1c2c(nn1Cc1ccccc1)c(N)nc1ccccc12 | > 250
33 | CC(C(=O)O)c1ccc2c(c1)CCc1ccccc1C2=O (stereo not drawn) | 122
34 | Nc1ccc(C2CC2)cc1C(=O)O | 158
35 | CCCCCCCCCCCCCCOc1cc(OCCCCCCCCCCCCCC)cc(C(=O)N(CC(=O)O)CC(=O)O)c1 | 88 to 90
36 | COc1ccccc1NC(=O)Nc1nc(Nc2ccccc2-c2ccccc2)nc(N2Cc3ccccc3CC2C(=O)O)n1 (stereo not drawn) | 138 to 145
37 | CSc1nc(Br)cc(Oc2cccc(C(F)(F)F)c2)n1 | 70 to 71
38 | O=C(O)c1cnn2c(C(F)(F)F)cc(-c3ccc(C(F)(F)F)cc3)nc12 | 248
39 | CCNC(=O)ON=C1CCOc2ccccc21 | 110 to 111
40 | Nc1ncccc1-c1nc2ccc(-c3cccnc3)nc2n1-c1ccc(CNC(=O)c2ccccc2)cc1 | 253 to 256
41 | CC(C)c1ccc(C(C)C)n1NC1=NCCN1 | 230 to 232
42 | COc1ccc(C(=O)N[C@H]2CCN(C)C[C@H]2c2ccc3c(c2)OCO3)cc1OC (relative stereo) | 193 to 194
43 | CCOC(=O)C(C)(O)c1ccncc1F (stereo not drawn) | 56 to 60
44 | Cn1nc(C(=O)Nc2ccc(OCC(C)(C)C)c(C#N)c2)cc1-c1ccccc1 | 156 to 157
45 | COCOc1ccccc1-c1cc(-c2ccccc2C(=O)OC)c(C#N)c(N)n1 | 109 to 110
46 | COc1cc(C(C)=O)ccc1OCCCCN1CCC(c2n[nH]c3ccccc23)CC1 | 133 to 135
47 | O=C(NCCc1cccs1)c1ccc(-c2ccccc2)cc1 | 164 to 166
48 | CC(C)(C)NC(=O)N1C(=O)C(C(=O)c2cccs2)c2ccc(Cl)cc21 (stereo not drawn) | 160 to 162
